Measurements as given in ChEMBL document CHEMBL3994611, “Synthesis and biological evaluation of deferiprone-resveratrol hybrids as antioxidants, Aβ1-42 aggregation inhibitors and metal-chelating agents for Alzheimer's disease” (Eur J Med Chem, 2017).
pIC50: −log10 of the molar value. Activity calls are given as the source filed them. No cut-off for these calls is given here.

Assays:
[1] = Binding affinity to CP645 probe-labeled Fe3+ in DMSO/MOPS buffer assessed as concentration of free Fe3+ in solution at 60 uM after 48 hrs by spectrofluorophotometric method
[2] = Antioxidant activity assessed as ABTS radical scavenging activity incubated for 10 mins under dark condition; type: functional
[3] = biological target: T1, Amyloid-beta precursor protein (Homo sapiens, UniProt P05067); assay: Inhibition of HFIP-pretreated amyloid beta (1 to 42) (unknown origin) self-induced aggregation at 20 uM incubated for 24 hrs under dark condition by thioflavin-T based fluorometric assay relative to control
[4] = biological target: T1, Amyloid-beta precursor protein; assay: Inhibition of HFIP-pretreated amyloid beta (1 to 42) (unknown origin) self-induced aggregation incubated for 24 hrs under dark condition by thioflavin-T based fluorometric assay
[5] = (§1) Binding affinity to Fe3+ assessed as disaggregation of Fe3+-induced amyloid beta (1 to 42) aggregation by measuring Fe3+-amyloid beta (1 to 42) complex fluorescence at 50 uM treated 24 hrs after Fe3+ addition measured after 24 hrs incubation under dark condition by thioflavin-T based fluorometric assay relative to control
[6] = Binding affinity to Fe3+ assessed as inhibition of Fe3+-induced amyloid beta (1 to 42) aggregation by measuring Fe3+-amyloid beta (1 to 42) complex fluorescence at 50 uM incubated for 24 hrs under dark condition by thioflavin-T based fluorometric assay relative to control; design: scale not given: the % may be the effect or the level left
[7] = Binding affinity to Cu2+ assessed as inhibition of Cu2+-induced amyloid beta (1 to 42) aggregation by measuring Cu2+-amyloid beta (1 to 42) complex fluorescence at 75 uM incubated for 24 hrs under dark condition by thioflavin-T based fluorometric assay relative to control; design: scale not given: the % may be the effect or the level left
[8] = Binding affinity to Cu2+ assessed as disaggregation of Cu2+-induced amyloid beta (1 to 42) aggregation at 75 uM incubated for 24 hrs under dark condition by uranyl acetate staining based transmission electron microscopic method
[9] = Binding affinity to Fe3+ assessed as inhibition of Fe3+-induced amyloid beta (1 to 42) aggregation at 50 uM incubated for 24 hrs under dark condition by uranyl acetate staining based transmission electron microscopic method
[10] = Binding affinity to Fe3+ assessed as disaggregation of Fe3+-induced amyloid beta (1 to 42) aggregation at 50 uM incubated for 24 hrs under dark condition by uranyl acetate staining based transmission electron microscopic method
[11] = Binding affinity to Cu2+ assessed as inhibition of Cu2+-induced amyloid beta (1 to 42) aggregation at 75 uM incubated for 24 hrs under dark condition by uranyl acetate staining based transmission electron microscopic method
[12] = as §1, with “Cu2+” for “Fe3+”, “Cu2+-induced” for “Fe3+-induced”, “Cu2+-amyloid” for “Fe3+-amyloid”, “75” for “50”
[13] = Binding affinity to Fe3+ in DMSO/MOPS buffer assessed as maximal absorbance intensity at iron to ligand ratio of 1:4 by UV-visible spectrophotometric method
[14] = Binding affinity to Fe3+ assessed as cumulative stability constant
[15] = Binding affinity to Cu2+ assessed as cumulative stability constant
[16] = Binding affinity to Zn2+ assessed as cumulative stability constant

T1 sequence (P05067 whole entry): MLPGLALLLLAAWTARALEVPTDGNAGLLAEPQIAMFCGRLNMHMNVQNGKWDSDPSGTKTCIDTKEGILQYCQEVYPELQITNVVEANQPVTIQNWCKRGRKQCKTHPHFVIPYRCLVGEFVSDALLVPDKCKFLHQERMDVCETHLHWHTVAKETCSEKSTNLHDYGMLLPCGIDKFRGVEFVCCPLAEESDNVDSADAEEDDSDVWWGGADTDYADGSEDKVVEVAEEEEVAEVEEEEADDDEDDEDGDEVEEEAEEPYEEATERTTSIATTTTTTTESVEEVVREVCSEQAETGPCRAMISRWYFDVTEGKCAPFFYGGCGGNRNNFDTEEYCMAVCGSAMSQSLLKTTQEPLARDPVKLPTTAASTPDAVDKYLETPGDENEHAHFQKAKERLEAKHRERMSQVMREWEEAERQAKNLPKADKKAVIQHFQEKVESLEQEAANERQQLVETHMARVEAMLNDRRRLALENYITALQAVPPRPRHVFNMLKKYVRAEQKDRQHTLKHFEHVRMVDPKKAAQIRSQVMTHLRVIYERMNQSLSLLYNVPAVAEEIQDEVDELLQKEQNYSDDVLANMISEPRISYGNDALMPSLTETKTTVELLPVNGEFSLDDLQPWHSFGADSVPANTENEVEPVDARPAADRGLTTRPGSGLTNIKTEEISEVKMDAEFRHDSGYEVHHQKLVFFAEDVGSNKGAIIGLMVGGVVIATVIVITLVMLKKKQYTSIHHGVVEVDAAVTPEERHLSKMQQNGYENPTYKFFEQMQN

## O=c1cc(/C=C/c2ccc(Cl)cc2)[nH]cc1O
[1]
  log free Fe3+ concentration: -19.5
[2]
  pIC50: 4.94
[3]
  inhibition: 11.6%

## Cc1c(C)c2c(c(C)c1O)CCC(C)(C(=O)O)O2 (stereo not drawn) [TROLOX]
[2]
  pIC50: 5.41

## O=c1cc(/C=C/c2ccccc2O)[nH]cc1O
[1]
  log free Fe3+ concentration: -20.2
[2]
  pIC50: 5.66
[3]
  inhibition: 49.3%
[4]
  pIC50: 4.66

## CN(C)c1ccc(/C=C/c2cc(=O)c(O)cn2C)cc1
[1]
  log free Fe3+ concentration: -19.2
[2]
  pIC50: 5.60
[3]
  inhibition: 44.9%

## Cn1cc(O)c(=O)cc1/C=C/c1cc(O)cc(O)c1
[1]
  log free Fe3+ concentration: -20.1
[2]
  pIC50: 5.92
[3]
  inhibition: 22.4%

## COc1cc(/C=C/c2cc(=O)c(O)c[nH]2)cc(OC)c1
[1]
  log free Fe3+ concentration: -21.6
[2]
  pIC50: 4.94
[3]
  inhibition: 35.3%

## COc1cc(/C=C/c2cc(=O)c(O)cn2C)cc(OC)c1
[1]
  log free Fe3+ concentration: -21.2
[2]
  pIC50: 5.43
[3]
  inhibition: 28.3%

## CCOc1ccc(/C=C/c2cc(=O)c(O)cn2C)cc1
[5]
  Activity: 16%
[1]
  log free Fe3+ concentration: -19
[6]
  Activity: 64%
[7]
  Activity: 57%
[8]
  Activity: Active
[2]
  pIC50: 5.40
[3]
  inhibition: 65.3%
[9]
  Activity: Active
[10]
  Activity: Active
[11]
  Activity: Active
[4]
  pIC50: 5.05
[12]
  Activity: 47%

## COc1ccccc1/C=C/c1cc(=O)c(O)c[nH]1
[1]
  log free Fe3+ concentration: -20.2
[2]
  pIC50: 5.17
[3]
  inhibition: 54.9%
[4]
  pIC50: 4.78

## O=c1cc(/C=C/c2ccc(O)cc2)[nH]cc1O
[5]
  Activity: 25%
[1]
  log free Fe3+ concentration: -19.6
[6]
  Activity: 62%
[7]
  Activity: 65%
[8]
  Activity: Active
[2]
  pIC50: 5.76
[13]
  Activity: Active
[3]
  inhibition: 58.4%
[9]
  Activity: Active
[10]
  Activity: Active
[11]
  Activity: Active
[4]
  pIC50: 4.97
[12]
  Activity: 69%

## Cn1cc(O)c(=O)cc1/C=C/c1ccccc1O
[1]
  log free Fe3+ concentration: -20.3
[2]
  pIC50: 5.74
[3]
  inhibition: 31.1%

## Cn1cc(O)c(=O)cc1/C=C/c1ccc([N+](=O)[O-])cc1
[1]
  log free Fe3+ concentration: -18.4
[2]
  pIC50: 4.72

## Cn1cc(O)c(=O)cc1/C=C/c1ccccc1
[1]
  log free Fe3+ concentration: -19.8
[2]
  pIC50: 5.68
[3]
  inhibition: 21.6%

## COc1ccccc1/C=C/c1cc(=O)c(O)cn1C
[1]
  log free Fe3+ concentration: -20.6
[2]
  pIC50: 5.38
[3]
  inhibition: 56.8%
[4]
  pIC50: 4.90

## O=c1cc(/C=C/c2cc(O)cc(O)c2)[nH]cc1O
[1]
  log free Fe3+ concentration: -19.2
[2]
  pIC50: 6.06
[3]
  inhibition: 18.2%

## CCOc1ccc(/C=C/c2cc(=O)c(O)c[nH]2)cc1
[1]
  log free Fe3+ concentration: -20.1
[2]
  pIC50: 5.09
[3]
  inhibition: 51.5%
[4]
  pIC50: 4.63

## Cn1cc(O)c(=O)cc1/C=C/c1ccc(O)cc1
[1]
  log free Fe3+ concentration: -20.1
[2]
  pIC50: 5.86
[3]
  inhibition: 52.5%
[4]
  pIC50: 4.81

## Oc1ccc(/C=C/c2cc(O)cc(O)c2)cc1 [RESVERATROL]
[5]
  Activity: 58%
[6]
  Activity: 87%
[7]
  Activity: 86%
[8]
  Activity: Active
[2]
  pIC50: 6.12
[10]
  Activity: Active
[12]
  Activity: 35%

## Cn1cc(O)c(=O)cc1/C=C/c1cccc(F)c1
[1]
  log free Fe3+ concentration: -20.1
[2]
  pIC50: 5.88
[3]
  inhibition: 52.4%
[4]
  pIC50: 4.71

## O=c1cc(/C=C/c2ccc([N+](=O)[O-])cc2)[nH]cc1O
[1]
  log free Fe3+ concentration: -19.5
[2]
  pIC50: 5.32

## O=c1cc(/C=C/c2cccc(F)c2)[nH]cc1O
[1]
  log free Fe3+ concentration: -20.2
[2]
  pIC50: 5.20
[3]
  inhibition: 53.2%
[4]
  pIC50: 4.72

## Cn1cc(O)c(=O)cc1/C=C/c1ccc(Cl)cc1
[1]
  log free Fe3+ concentration: -20.8
[2]
  pIC50: 5.24
[3]
  inhibition: 14.5%

## O=c1cc(/C=C/c2ccccc2)[nH]cc1O
[1]
  log free Fe3+ concentration: -21
[2]
  pIC50: 5.39
[3]
  inhibition: 38.2%

## CN(C)c1ccc(/C=C/c2cc(=O)c(O)c[nH]2)cc1
[1]
  log free Fe3+ concentration: -20.1
[2]
  pIC50: 5.47
[3]
  inhibition: 49.6%
[4]
  pIC50: 4.53

## Cc1c(O)c(=O)ccn1C
[1]
  log free Fe3+ concentration: -20.6
[14]
  K: 37.2
[15]
  K: 21.7
[16]
  K: 13.5
